Measurements reported in patent publication US4900539A, “Radiohalogenated thienylethylamine derivatives for evaluating local cerebral blood flow” (The United States of America as represented by the United …, priority 1988, dated 1990).

Experiments:
[1] = Tissue distribution of 5-halothiophene-2-isopropylamines in Fisher rats (brain uptake and brain:blood); type: in vivo; settings: for tissue uptake at 5 min / tissue uptake at 0.5 h / tissue uptake at 1 h: rat, brain, read-out: Mean Brain, % Dose/gm
Description: TISSUE DISTRIBUTION OF 5-HALOTHIOPHENE-
Mean Brain, % Dose/gm (Mean Brain:Blood)

[2] = IMP versus HIPDM, cited from earlier work

Row | SMILES | brain uptake and retention (in words) [1] | brain-to-blood ratios (in words) [1] | Mean Brain:Blood ([1]; 5 min) | Mean Brain:Blood ([1]; 30 min) | Mean Brain:Blood ([1]; 60 min) | tissue uptake at 5 min ([1]; 5 min) [%ID/g] | tissue uptake at 0.5 h ([1]; 30 min) [%ID/g] | tissue uptake at 1 h ([1]; 60 min) [%ID/g] | lung clearance relative to HIPDM [2] | amount of activity in the brain relative to HIPDM ([2]; five minutes after administration)
1 | CC(N)Cc1ccc([125I])s1 (centres unmarked) [I--125] | high brain uptake and good retention | high brain-to-blood ratios | 6.0 | 3.7 | 2.1 | 2.77 | 2.51 | 1.42 |  | 
2 | CC(N)Cc1ccc([82Br])s1 (centres unmarked) [Br--82] | good brain uptake and retention |  | 10.4 | 4.1 | 2.2 | 2.7 | 2.3 | 1.67 |  | 
3 | CC(C)NC(C)Cc1ccc(I)cc1 (centres unmarked) [IMP, N-isopropyl-p-iodoamphetamine] |  |  |  |  |  |  |  |  | clears the lungs faster | almost twice the amount of activity in the brain
